Measurements reported in PubChem BioAssay AID504661 (Broad Institute, 2011).
Active and inactive are the calls of the source. The rule behind the calls is not given here.

System: P. falciparum 3D7 ACP-GFP apicoplast imaging, 4 days
Test: apicoplast disruption in P. falciparum parasites, late-stage follow-up, mechanism study for antimalarial project, imaging, 3D7 ACP-GFP strain (AID 504661)
Details: hits give high values

Cc1noc(C)c1NC(=O)Nc1ccc2c(c1)C(=O)N([C@@H](C)CO)C[C@@H](C)[C@H](CN(C)S(=O)(=O)c1ccc(F)cc1)OCCCC[C@H](C)O2
apicoplast disruption (at 2000 nM): 21% (inactive)

C[C@@H]1CN([C@@H](C)COC(=O)C(C)(C)C)C(=O)c2cc(NC(=O)Nc3ccccc3)ccc2O[C@@H](C)CCCCO[C@H]1CN(C)S(=O)(=O)c1ccc(F)cc1
apicoplast disruption (at 16 nM): 17.2% (inactive)

COCCOC(=O)N(C)C[C@@H]1OCCCC[C@H](C)Oc2ccc(NC(=O)Nc3ccccc3)cc2C(=O)N([C@@H](C)CO)C[C@H]1C
apicoplast disruption (at 50000 nM): 13.7% (inactive)

COc1ccc(COC[C@H](C)N2C[C@@H](C)[C@H](CN(C)S(=O)(=O)c3ccc(F)cc3)OCCCC[C@H](C)Oc3ccc(NC(=O)Nc4ccccc4)cc3C2=O)cc1
apicoplast disruption (at 3.2 nM): 16.1% (inactive)
